Values of other authors as cited in patent US8470863B2, “Derivatives and analogs of chroman as functionally selective ALPHA2C adrenoreceptor agonists” (Merck Sharp & Dohme, Corp., priority 2007, dated 2013).

Test system: Coloboma mice
Conditions: mice mutated to exhibit spontaneous hyperactivity; Bruno et al. 2006

COC(=O)[C@@H]1[C@H]2C[C@H]3c4[nH]c5ccccc5c4CCN3C[C@@H]2CC[C@@H]1O [yohimbine]
Effect on hyperactivity of Coloboma mice: ameliorated hyperactivity
